Measurements from PMC10065276, “Enhanced therapeutic window for antimicrobial Pept-ins by investigating their structure-activity relationship” (PLOS ONE, 2023).
Values after ≈ are worked out from the molar mass of the structure shown. Residues, ends and D or L forms follow the SMILES beside them.

System: E. coli BL21
Settings: BL21, 17 h
Description: The peptide MIC was determined via the broth microdilution assay according to the EUCAST guideline, using 96-well polystyrene flat-bottom microtiter plates (BD Biosciences). Briefly, a single colony was inoculated in 5 mL Mueller-Hinton (MH) medium and incubated, while shaking at 37°C, to the end-exponential growth phase. The bacterial culture was subsequently diluted to 0.005 McFarland (McF) (~1.5x10^6 CFU/mL) with fresh MH medium. Two-fold serial peptide-dilutions were prepared in 50 μL MH medium resulting in a concentration range of 0.75 to 100 μg/mL (at least three wells for each concentration). Afterwards, 50 μL of the freshly diluted bacterial suspension (0.005 McF) was mixed with different peptide concentrations in the 96-well plate, performed in triplicates. The plate was ultimately incubated at 37°C overnight without shaking for 17 hours. The MIC was determined as the lowest peptide concentration without visible bacterial growth.

Compound | BL21 MIC [µg/mL] | MIC against E. coli BL21 [µg/mL]
CC(C)C[C@H](NC(=O)CNC(=O)[C@H](CCCNC(=N)N)NC(=O)[C@H](C)NC(=O)[C@H](C)NC(=O)[C@H](CCCNC(=N)N)NC(=O)[C@@H](NC(=O)[C@H](CC(C)C)NC(=O)[C@H](C)NC(=O)[C@H](CC(C)C)NC(=O)CNC(=O)[C@H](CC(C)C)NC(=O)CNC(=O)[C@@H](N)CCCNC(=N)N)C(C)C)C(=O)NCC(=O)N[C@@H](CC(C)C)C(=O)N[C@@H](C)C(=O)N[C@@H](CC(C)C)C(=O)N[C@H](C(=O)N[C@@H](C)C(=O)N[C@@H](CCCNC(=N)N)C(=O)O)C(C)C [Peptide P2_4R_A] (H-RGLGLALVRAARGLGLALVAR-OH) | 12.50 | –
CC(C)C[C@H](NC(=O)CNC(=O)[C@H](CCCNC(=N)N)NC(=O)[C@H](Cc1ccccc1)NC(=O)[C@H](C)NC(=O)[C@H](CCCNC(=N)N)NC(=O)[C@@H](NC(=O)[C@H](CC(C)C)NC(=O)[C@H](C)NC(=O)[C@H](CC(C)C)NC(=O)CNC(=O)[C@H](CC(C)C)NC(=O)CNC(=O)[C@@H](N)CCCNC(=N)N)C(C)C)C(=O)NCC(=O)N[C@@H](CC(C)C)C(=O)N[C@@H](C)C(=O)N[C@@H](CC(C)C)C(=O)N[C@H](C(=O)N[C@@H](C)C(=O)N[C@@H](CCCNC(=N)N)C(=O)O)C(C)C [Peptide P2_4R_F] (H-RGLGLALVRAFRGLGLALVAR-OH) | 12.50 | –
CC(C)C[C@H](NC(=O)CNC(=O)[C@H](CCCNC(=N)N)NC(=O)[C@@H](NC(=O)CNC(=O)[C@H](C)NC(=O)[C@H](CCCNC(=N)N)NC(=O)[C@@H](NC(=O)[C@H](CC(C)C)NC(=O)[C@H](C)NC(=O)[C@H](CC(C)C)NC(=O)CNC(=O)[C@H](CC(C)C)NC(=O)CNC(=O)[C@@H](N)CCCNC(=N)N)C(C)C)C(C)C)C(=O)NCC(=O)N[C@@H](CC(C)C)C(=O)N[C@@H](C)C(=O)N[C@@H](CC(C)C)C(=O)N[C@H](C(=O)N[C@@H](C)C(=O)N[C@@H](CCCNC(=N)N)C(=O)O)C(C)C [Peptide P2_4R_GV] (H-RGLGLALVRAGVRGLGLALVAR-OH) | 6.25 | 6.3 (≈ 2.88 µM)
CC[C@H](C)[C@H](NC(=O)[C@H](C)NC(=O)[C@H](CCCNC(=N)N)NC(=O)[C@@H](NC(=O)[C@H](CC(C)C)NC(=O)[C@H](C)NC(=O)[C@H](CC(C)C)NC(=O)CNC(=O)[C@H](CC(C)C)NC(=O)CNC(=O)[C@@H](N)CCCNC(=N)N)C(C)C)C(=O)N[C@@H](CCCNC(=N)N)C(=O)NCC(=O)N[C@@H](CC(C)C)C(=O)NCC(=O)N[C@@H](CC(C)C)C(=O)N[C@@H](C)C(=O)N[C@@H](CC(C)C)C(=O)N[C@H](C(=O)N[C@@H](C)C(=O)N[C@@H](CCCNC(=N)N)C(=O)O)C(C)C [Peptide P2_4R_I] (H-RGLGLALVRAIRGLGLALVAR-OH) | 12.50 | –
CSCC[C@H](NC(=O)[C@H](C)NC(=O)[C@H](CCCNC(=N)N)NC(=O)[C@@H](NC(=O)[C@H](CC(C)C)NC(=O)[C@H](C)NC(=O)[C@H](CC(C)C)NC(=O)CNC(=O)[C@H](CC(C)C)NC(=O)CNC(=O)[C@@H](N)CCCNC(=N)N)C(C)C)C(=O)N[C@@H](CCCNC(=N)N)C(=O)NCC(=O)N[C@@H](CC(C)C)C(=O)NCC(=O)N[C@@H](CC(C)C)C(=O)N[C@@H](C)C(=O)N[C@@H](CC(C)C)C(=O)N[C@H](C(=O)N[C@@H](C)C(=O)N[C@@H](CCCNC(=N)N)C(=O)O)C(C)C [Peptide P2_4R_M] (H-RGLGLALVRAMRGLGLALVAR-OH) | 12.50 | –
CC(C)C[C@H](NC(=O)CNC(=O)[C@H](CCCNC(=N)N)NC(=O)[C@H](CCCNC(=N)N)NC(=O)[C@H](C)NC(=O)[C@H](CCCNC(=N)N)NC(=O)[C@@H](NC(=O)[C@H](CC(C)C)NC(=O)[C@H](C)NC(=O)[C@H](CC(C)C)NC(=O)CNC(=O)[C@H](CC(C)C)NC(=O)CNC(=O)[C@@H](N)CCCNC(=N)N)C(C)C)C(=O)NCC(=O)N[C@@H](CC(C)C)C(=O)N[C@@H](C)C(=O)N[C@@H](CC(C)C)C(=O)N[C@H](C(=O)N[C@@H](C)C(=O)N[C@@H](CCCNC(=N)N)C(=O)O)C(C)C [Peptide P2_4R_R] (H-RGLGLALVRARRGLGLALVAR-OH) | 12.50 | –
CC(C)C[C@H](NC(=O)CNC(=O)[C@H](CCCNC(=N)N)NC(=O)[C@@H](NC(=O)[C@H](C)NC(=O)[C@H](CCCNC(=N)N)NC(=O)[C@@H](NC(=O)[C@H](CC(C)C)NC(=O)[C@H](C)NC(=O)[C@H](CC(C)C)NC(=O)CNC(=O)[C@H](CC(C)C)NC(=O)CNC(=O)[C@@H](N)CCCNC(=N)N)C(C)C)C(C)C)C(=O)NCC(=O)N[C@@H](CC(C)C)C(=O)N[C@@H](C)C(=O)N[C@@H](CC(C)C)C(=O)N[C@H](C(=O)N[C@@H](C)C(=O)N[C@@H](CCCNC(=N)N)C(=O)O)C(C)C [Peptide P2_4R_V] (H-RGLGLALVRAVRGLGLALVAR-OH) | 12.50 | –
CC(C)C[C@H](NC(=O)CNC(=O)[C@H](CCCNC(=N)N)NC(=O)[C@H](Cc1c[nH]c2ccccc12)NC(=O)[C@H](C)NC(=O)[C@H](CCCNC(=N)N)NC(=O)[C@@H](NC(=O)[C@H](CC(C)C)NC(=O)[C@H](C)NC(=O)[C@H](CC(C)C)NC(=O)CNC(=O)[C@H](CC(C)C)NC(=O)CNC(=O)[C@@H](N)CCCNC(=N)N)C(C)C)C(=O)NCC(=O)N[C@@H](CC(C)C)C(=O)N[C@@H](C)C(=O)N[C@@H](CC(C)C)C(=O)N[C@H](C(=O)N[C@@H](C)C(=O)N[C@@H](CCCNC(=N)N)C(=O)O)C(C)C [Peptide P2_4R_W] (H-RGLGLALVRAWRGLGLALVAR-OH) | 12.50 | –
CC(C)C[C@H](NC(=O)CNC(=O)[C@H](CCCNC(=N)N)NC(=O)[C@@H]1CCCN1C(=O)[C@H](CCCNC(=N)N)NC(=O)[C@H](CCCNC(=N)N)NC(=O)[C@@H](NC(=O)[C@H](CC(C)C)NC(=O)[C@H](C)NC(=O)[C@H](CC(C)C)NC(=O)CNC(=O)[C@H](CC(C)C)NC(=O)CNC(=O)[C@@H](N)CCCNC(=N)N)C(C)C)C(=O)NCC(=O)N[C@@H](CC(C)C)C(=O)N[C@@H](Cc1ccccc1)C(=O)N[C@@H](CC(C)C)C(=O)N[C@H](C(=O)N[C@@H](CCCNC(=N)N)C(=O)N[C@@H](CCCNC(=N)N)C(=O)O)C(C)C [Peptide P2_A5F] (H-RGLGLALVRRPRGLGLFLVRR-OH) | 3.13 | –
CC[C@H](C)[C@H](NC(=O)[C@H](CC(C)C)NC(=O)CNC(=O)[C@H](CC(C)C)NC(=O)CNC(=O)[C@H](CCCNC(=N)N)NC(=O)[C@@H]1CCCN1C(=O)[C@H](CCCNC(=N)N)NC(=O)[C@H](CCCNC(=N)N)NC(=O)[C@@H](NC(=O)[C@H](CC(C)C)NC(=O)[C@H](C)NC(=O)[C@H](CC(C)C)NC(=O)CNC(=O)[C@H](CC(C)C)NC(=O)CNC(=O)[C@@H](N)CCCNC(=N)N)C(C)C)C(=O)N[C@@H](CC(C)C)C(=O)N[C@H](C(=O)N[C@@H](CCCNC(=N)N)C(=O)N[C@@H](CCCNC(=N)N)C(=O)O)C(C)C [Peptide P2_A5I] (H-RGLGLALVRRPRGLGLILVRR-OH) | 12.50 | –
CC(C)C[C@H](NC(=O)CNC(=O)[C@H](CCCNC(=N)N)NC(=O)[C@@H]1CCCN1C(=O)[C@H](CCCNC(=N)N)NC(=O)[C@H](CCCNC(=N)N)NC(=O)[C@@H](NC(=O)[C@H](CC(C)C)NC(=O)[C@H](C)NC(=O)[C@H](CC(C)C)NC(=O)CNC(=O)[C@H](CC(C)C)NC(=O)CNC(=O)[C@@H](N)CCCNC(=N)N)C(C)C)C(=O)NCC(=O)N[C@@H](CC(C)C)C(=O)N[C@@H](CC(C)C)C(=O)N[C@@H](CC(C)C)C(=O)N[C@H](C(=O)N[C@@H](CCCNC(=N)N)C(=O)N[C@@H](CCCNC(=N)N)C(=O)O)C(C)C [Peptide P2_A5L] (H-RGLGLALVRRPRGLGLLLVRR-OH) | 6.25 | –
CSCC[C@H](NC(=O)[C@H](CC(C)C)NC(=O)CNC(=O)[C@H](CC(C)C)NC(=O)CNC(=O)[C@H](CCCNC(=N)N)NC(=O)[C@@H]1CCCN1C(=O)[C@H](CCCNC(=N)N)NC(=O)[C@H](CCCNC(=N)N)NC(=O)[C@@H](NC(=O)[C@H](CC(C)C)NC(=O)[C@H](C)NC(=O)[C@H](CC(C)C)NC(=O)CNC(=O)[C@H](CC(C)C)NC(=O)CNC(=O)[C@@H](N)CCCNC(=N)N)C(C)C)C(=O)N[C@@H](CC(C)C)C(=O)N[C@H](C(=O)N[C@@H](CCCNC(=N)N)C(=O)N[C@@H](CCCNC(=N)N)C(=O)O)C(C)C [Peptide P2_A5M] (H-RGLGLALVRRPRGLGLMLVRR-OH) | 6.25 | –
CC(C)C[C@H](NC(=O)CNC(=O)[C@H](CCCNC(=N)N)NC(=O)[C@@H]1CCCN1C(=O)[C@H](CCCNC(=N)N)NC(=O)[C@H](CCCNC(=N)N)NC(=O)[C@@H](NC(=O)[C@H](CC(C)C)NC(=O)[C@H](C)NC(=O)[C@H](CC(C)C)NC(=O)CNC(=O)[C@H](CC(C)C)NC(=O)CNC(=O)[C@@H](N)CCCNC(=N)N)C(C)C)C(=O)NCC(=O)N[C@@H](CC(C)C)C(=O)N[C@@H](Cc1c[nH]c2ccccc12)C(=O)N[C@@H](CC(C)C)C(=O)N[C@H](C(=O)N[C@@H](CCCNC(=N)N)C(=O)N[C@@H](CCCNC(=N)N)C(=O)O)C(C)C [Peptide P2_A5W] (H-RGLGLALVRRPRGLGLWLVRR-OH) | 6.25 | –
CC(C)C[C@H](NC(=O)CNC(=O)[C@H](CCCNC(=N)N)NC(=O)[C@@H]1CCCN1C(=O)[C@H](CCCNC(=N)N)NC(=O)[C@H](CCCNC(=N)N)NC(=O)[C@@H](NC(=O)[C@H](CC(C)C)NC(=O)[C@H](C)NC(=O)[C@H](CC(C)C)NC(=O)CNC(=O)[C@H](CC(C)C)NC(=O)CNC(=O)[C@@H](N)CCCNC(=N)N)C(C)C)C(=O)NCC(=O)N[C@@H](CC(C)C)C(=O)N[C@@H](Cc1ccc(O)cc1)C(=O)N[C@@H](CC(C)C)C(=O)N[C@H](C(=O)N[C@@H](CCCNC(=N)N)C(=O)N[C@@H](CCCNC(=N)N)C(=O)O)C(C)C [Peptide P2_A5Y] (H-RGLGLALVRRPRGLGLYLVRR-OH) | 6.25 | –
